Experiments:
Format in all cases: binding, sheep
Conditions in all cases: Cross-reactants at 100 ng/ml; 1000ng/ml; single level of cross reactants
Antibody to Immunogen VI = system: Antibody to Immunogen VI
Description: (§1) The wells of an enhanced binding 96 well polystyrene microtiter plate were coated with IgG fraction of antiserum raised to Immunogen VI, diluted in 10mM Tris, pH8.5 (125µl/well). The appropriate antibody coating dilution was determined using standard ELISA checkerboard techniques. The plate was incubated overnight at 4°C, washed 4 times over 10 minutes with Tris buffered saline containing Tween 20 (TBST) and tapped dry. Standard solutions of RCS-4 were prepared in TBST at 0, 0.3125, 0.625, 1.25, 2.5, 5, 10 and 20ng/ml, and 50µl of each was added to the appropriate wells (see figure 1). 75µl of conjugate (appropriate hapten-HRP) diluted in Tris buffer (pH 7.2) containing EDTA, D-mannitol, sucrose, thimerosal and BSA, was added to each of the wells. The appropriate dilution of conjugate was also determined using standard ELISA checkerboard techniques. The plate was incubated at 25°C for 1 hour. Excess unbound conjugate was removed by washing 6 times over a 10 minute period with TBST. 125µl oftetramethylbenzidine (TMB) substrate solution was added to each well of the plate that was then incubated for 20 minutes in the dark at room temperature. The reaction was terminated by addition of 125µl 0.2M H2SO4 to each well. The absorbance was then measured at 450nm using a microtiter plate reader. The data are inputted to a computer program called 'KC Junior'. It is a 4 parameter fit curve and allow the calculatation of concentrations between the standard runs. This program is used to calculate the IC50s by dividing the 0ng/ml OD value by 2 and obtaining the concentration value from the curve for this OD.
(§2) The data set our in Tables 3 and 4 are generated using antibodies raised against the indicated Immunogens in a competitive binding assay with the indicated tracers, using the indicated standards: Table 2
(§3) In order to determine the specificity of the competitive ELISAs, standard solutions of a range of structurally similar synthetic cannabinoids and their metabolites were prepared in TBST. Using the calibration curves generated and employing a single level of cross reactants, these were used to determine the cross-reactivity of each immunoassay with these substances. Table 4: Cross reactivity of the competitive ELISAs for synthetic cannabinoids and their metabolites

Antibody to Immunogen V = system: Antibody to Immunogen V
Description: as §1
In a similar manner to that described above, the wells of a 96-well microtiter plate were coated with the IgG fraction of the antiserum raised to Immunogens IV, V, VII or VIII. Standard solutions (RCS-8 for Immunogen V) were prepared in TBST at 0, 1.25, 2.5, 5, 10, 20, 40 and 80ng/ml and conjugate was employed as detection reagent.
as §2, §3

[1] = system: Antibody to Immunogen III
Description: as §1
In a similar manner to that described above, the wells of a 96-well microtiter plate were coated with the IgG fraction of the antiserum raised to Immunogens I, II or III. Standard solutions (JWH-250 for Immunogen III) were applied at 0, 0.625, 1.25, 2.5, 5, 10, 20 and 40ng/ml and conjugate was employed as detection reagent.
as §2, §3

SMILES	%B/B0 (Antibody to Immunogen VI) [%]	%B/B0 (Antibody to Immunogen V) [%]	%B/B0 [1] [%]
CS(=O)(=O)O.Cc1c(C(=O)c2cccc3ccccc23)c2cccc3c2n1[C@H](CN1CCOCC1)CO3 [(+)WIN 55212-2 (mesylate)]	91.65	68.43	93.28
CN1CCCCC1Cn1cc(C(=O)c2ccccc2I)c2ccccc21 (stereo not drawn) [AM-223]	79.16	54.35	95.28
COc1ccc(C(=O)c2c(C)n(CCN3CCOCC3)c3cc(I)ccc23)cc1 [AM-630 (other name 6-Iodopravadoline), 6-Iodopravadoline]	39.25	71.78	91.34
O=C(c1cccc(I)c1)c1cn(CCCCCF)c2ccccc12 [AM-694 3-iodo isomer]	44.38	63.18	67.86
O=C(c1ccc(I)cc1)c1cn(CCCCCF)c2ccccc12 [AM-694 4-iodo isomer]	16.99	77.65	65.53
O=C(c1ccccc1I)c1cn(CCCCCF)c2ccccc12 [AM-694]	70.77	64.61	72.80
CN1CCCCC1Cn1cc(C(=O)c2cccc3ccccc23)c2ccccc21 (stereo not drawn) [AM-1220]	81.44	63.74	99.70
CN1CCCCC1Cn1cc(C(=O)c2cc([N+](=O)[O-])ccc2I)c2ccccc21 (stereo not drawn) [AM-1241]	99.43	71.68	102.11
O=C(c1cccc2ccccc12)c1cn(CCCC(O)CF)c2ccccc12 (stereo not drawn) [AM-2201 N-(4-hydroxypentyl) metabolite]	77.68	50.40	68.76
O=C(c1cccc2ccccc12)c1cn(CCCCCF)c2ccccc12 [AM-2201]	76.96	76.07	67.95
CCCCCCC(C)(C)C1=CC(=O)C(C2CCCC(O)C2)=CC1=O (stereo not drawn) [CP-47,497-para-quinone analogue]	94.38	72.98	96.58
CCCCCc1cc(O)c2c(c1)OC(C)(C)c1ccc(C)cc1-2 [Cannabinol]	95.90	64.54	97.02
CCCCCc1cc(O)c2c(c1)OC(C)(C)[C@@H]1CCC(C)=C[C@@H]21 [Delta 9 THC]	94.84	65.28	91.21
CCCCCCC(C)(C)c1cc(O)c2c(c1)OC(C)(C)[C@@H]1CC=C(CO)C[C@@H]21 [HU-210]	90.89	67.43	91.13
CCCCCCC(C)(C)c1cc(O)c2c(c1)OC(C)(C)[C@H]1CC=C(CO)C[C@H]21 [HU-211 (Dexanabinol), Dexanabinol]	98.97	71.68	95.96
CCCCCCC(C)(C)c1cc(OC)c([C@@H]2C=C(CO)[C@@H]3C[C@H]2C3(C)C)c(OC)c1 [HU-308]	97.34	71.33	96.26
O=C(O)c1c[nH]c2ccccc12 [Indole-3-carboxylic Acid]	95.41	64.69	91.19
CCCCCn1cc(C(=O)c2ccc3ccccc3c2)c2ccccc21 [JWH 018 2'-naphthyl isomer]	44.48	88.32	76.35
CC(C)CCn1cc(C(=O)c2cccc3ccccc23)c2ccccc21 [JWH 018 N-(3-methylbutyl) isomer (JWH-073 3-methylbutyl homologue)]	66.63	63.42	82.58
CCCCCn1cc(C(=O)C23CC4CC(CC(C4)C2)C3)c2ccccc21 [JWH 018 adamantyl analog]	93.91	86.65	84.69
CCCCn1cc(C(=O)c2c(C)ccc3ccccc23)c2ccccc21 [JWH 073 2-methylnaphthyl analog]	86.98	77.45	86.14

SMILES	%B/B0 (Antibody to Immunogen VI) [%]	%B/B0 (Antibody to Immunogen V) [%]	%B/B0 [1] [%]
CCCCCn1cc(C(=O)c2c(C)ccc3ccccc23)c2ccccc21 [JWH 122 2-methylnaphthyl isomer]	90.59	83.38	80.25
CCCCCn1cc(C(=O)c2cccc3cc(C)ccc23)c2ccccc21 [JWH 122 6-methylnaphthyl isomer]	84.77	77.08	73.75
CCCCCn1cc(C(=O)c2cccc3ccc(C)cc23)c2ccccc21 [JWH 122 7-methylnaphthyl isomer]	86.92	78.80	71.72
CCCCCn1cc(C(=O)Cc2cccc(Cl)c2)c2ccccc21 [JWH 203 3-chloro isomer (JWH-237)]	72.53	27.22	22.69
CCCCCn1cc(C(=O)Cc2ccccc2OC)c2cc(O)ccc21 [JWH 250 5-hydroxyindole metabolite]	91.28	37.39	65.83
COc1ccccc1CC(=O)c1cn(CCCCCC(=O)O)c2ccccc12 [JWH 250 N-(5-carboxypentyl) metabo lite]	85.31	8.60	89.61
COc1ccccc1CC(=O)c1cn(CCCCCO)c2ccccc12 [JWH 250 N-(5-hydroxypentyl) metabo lite]	78.58	6.88	48.72
CCCCCn1cc(C(=O)Cc2cccc(C)c2)c2ccccc21 [JWH 251 3-methylphenyl isomer]	73.53	26.65	21.39
CCCCCn1c(C)c(C(=O)c2cccc3ccccc23)c2ccccc21 [JWH-007]	81.74	75.22	81.87
CCCCCC(C)n1c(C)c(C(=O)c2cccc3ccccc23)c2ccccc21 (stereo not drawn) [JWH-011]	88.22	83.73	93.19
CCCn1c(C)c(C(=O)c2cccc3ccccc23)c2ccccc21 [JWH-015]	77.06	73.42	93.97
CCCCn1c(C)c(C(=O)c2cccc3ccccc23)c2ccccc21 [JWH-016]	80.10	69.38	82.93
CCCCCn1cc(C(=O)c2cccc3ccccc23)c2ccc(OC)cc21 [JWH-018 6-methoxyindole analogue]	86.92	73.60	85.67
CC(C)(C)Cn1cc(C(=O)c2cccc3ccccc23)c2ccccc21 [JWH-018 N-(2,2-dimethylpropyl) isomer]	78.92	67.14	95.58
O=C(c1cccc2ccccc12)c1cn(CCCCCO)c2ccccc12 [JWH-018 N-(5-hydroxypentyl) metabo lite]	61.67	70.25	89.74
O=C(O)CCCCn1cc(C(=O)c2cccc3ccccc23)c2ccccc21 [JWH-018 N-pentanoic acid metabolite]	65.90	72.42	100.98
CCCCCn1cc(C(=O)c2cccc3ccccc23)c2ccccc21 [JWH-018]	82.47	78.01	78.39
CCCCCCn1cc(C(=O)c2cccc3ccccc23)c2ccccc21 [JWH-019]	78.02	70.25	88.06
CCCCCCCn1cc(C(=O)c2cccc3ccccc23)c2ccccc21 [JWH-020]	82.41	71.43	93.85
C=CCCCn1cc(C(=O)c2cccc3ccccc23)c2ccccc21 [JWH-022]	75.42	61.86	76.82
CCCCCn1ccc(C(=O)c2cccc3ccccc23)c1 [JWH-030]	86.70	77.27	95.34

Source: patent publication EP2698384A1, “Detection of synthetic cannabinoids” (priority 2012, dated 2014)
